One series concerns the target T1, human GnRHR1 (Homo sapiens, UniProt P30968).
T1 construct: expressed in transfected cells
T1 sequence (P30968 1-328): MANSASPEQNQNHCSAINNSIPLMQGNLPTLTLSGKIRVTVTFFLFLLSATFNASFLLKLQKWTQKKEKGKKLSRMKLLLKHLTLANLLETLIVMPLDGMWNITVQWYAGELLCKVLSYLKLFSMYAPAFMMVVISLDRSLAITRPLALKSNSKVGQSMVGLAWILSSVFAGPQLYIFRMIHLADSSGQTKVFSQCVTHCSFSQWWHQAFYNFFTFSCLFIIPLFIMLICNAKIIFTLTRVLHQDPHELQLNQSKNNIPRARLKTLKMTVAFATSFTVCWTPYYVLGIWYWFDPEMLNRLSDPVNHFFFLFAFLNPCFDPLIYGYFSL
Briefly: Inhibitory effect for the change of calcium levels in GnRH-stimulated cells (hGnRHR1#1 HEK293 cells). In kind it is cell-based. The note with it: hGnRHR1#1 cells (HEK293 stably expressing human GnRHR1), 10 nM GnRH added, FLIPR calcium dye; read-out: IC50 (drug concentration at which 50% GnRH-stimulated intracellular calcium flux was inhibited). The source says:
1) Cloning and Construction of the Vector Expressing Human GnRH Receptor1 (GnRHR1)
Using cDNA derived from human pituitary (BECTON DICKINSON) as a template, the DNA fragment coding 45 to 1115 by of human GnRHR1 (Accession No. L03380), which was reported by Kakar et al., was amplified by PCR method and inserted into the multi-cloning site of pcDNA3.1(+) (Invitrogen). The DNA sequence inserted was perfectly matched to the previously reported sequence.
2) Establishment of Cell Line Stably Expressing Human GnRH Receptor1 HEK293 Cells
The expression vector of human GnRHR1 gene, was digested by XhoI into a linear DNA. The linear DNA was transfected into HEK293 cells by means of lipofection (Lipofectamine2000: Invitrogen). Neomycin resistant cell lines were selected by culture in the medium containing G418 (Invitrogen) at 1 mg/mL, and then the change of calcium levels in GnRH-stimulated cells was measured by the method described below.
3) Assay of Inhibitory Effect for the Change of Calcium Levels in GnRH-Stimulated Cells
Antagonizing effect of compounds for human GnRHR1 was evaluated by depression of calcium levels in GnRH-stimulated cells. hGnRHR1#1 cells were seeded into a 96-well culture plate at a density of 1.5×10^5 cells/well and cultured for a day. […] Then, intracellular calcium levels were determined under the following condition by using FLEX STATION (Molecular Devices). […]
(In general: A change in cytosolic calcium serves as a functional read-out for many receptors and channels.)

A short description of series [1]: Assay for oral absorbability: plasma drug concentration after oral administration to rats. In kind it is in vivo, SD rats. The note with it: for C360 (plasma drug concentration at 360 minutes after administration) / Cmax: fasted male SD rats, oral 3 mg/kg, plasma; for availability by oral administration compared with Control compound 1 / sustainability of blood concentration 6 hours after oral administration compared with Control compound / Cmax: rat; for Cmax: LC-MS/MS, read-out: Cmax (maximum plasma drug concentration). As to the method:
Assay for Oral Absorbability
1) Preparation of the Samples for Measurement of the Drug Concentration after Oral Administration
As experimental animal, overnight fasted SD rats (Charles River, male, 7 weeks of age, 170-210 g) were used. Three mg of a test compound was dissolved by adding 0.2 mL of N,N-dimethylacetoamide, 9.794 mL of 0.5% aqueous methylcellulose solution and 0.006 mL of 2N NaOH, and then 0.3 mg/mL solution was prepared. The body weights of rats were measured, and the solution of the test compound was administered orally at the dose of 10 mL/kg (3 mg/kg). The oral administration was performed with gastric tube for rat and 2.5 mL syringe. The sampling times for collection of blood were 15, 30, 60, 120, 240 and 360 minutes after the oral administration. The blood was centrifuged, and the plasma was used as the sample for measurement of the drug concentration in blood.
2) Measurement of the Drug Concentration
To 0.025 mL of the plasma obtained in 1) described above, 0.1 mL of an adequate internal standard material was added according to the usual method, and then deproteinization was performed by adding 0.875 mL of acetonitrile. After centrifugation, 0.005 mL of the supernatant was injected into LC-MS/MS. The drug concentration in plasma was measured by LC-MS/MS method under the conditions as follows. To 0.05 mL of the blank plasma were added the internal standard material and various test compounds adequately according to the usual method, similar operating described above was done, and then the standard curves were prepared.
In the oral administration, the maximum plasma drug concentration (Cmax) and the plasma drug concentration at 360 minutes after administration (C360) are shown in Tables 8 and 9, respectively.

For the compound `CN(Cc1c(F)cccc1F)c1ccc(F)c(-n2c(=O)[nH]c3csc(C(=O)O)c3c2=O)c1` [Example 2], the IC50 at human GnRHR1 amounted to 133 nM. Moreover, in series [1], the C360 (plasma drug concentration at 360 minutes after administration) is 2170 ng/mL, the “availability by oral administration compared with Control compound 1” value was “more excellent availability than the Control compound 1”, the “sustainability of blood concentration 6 hours after oral administration compared with Control compound” value is on record as “more superior in sustainability than the Control compound” and the Cmax came to 14900 ng/mL.
On to `COCCOc1ccc(F)c(F)c1CN(C)c1ccc(F)c(-n2c(=O)[nH]c3csc(C(=O)O)c3c2=O)c1` [Example 1, 5-Carboxy-3-(2-fluoro-5-{N-[2,3-difluoro-6-(2-methoxyethoxy)benzyl]-N-methylamino}-phenyl)thieno[3,4-d]pyrimidine-2,4(1H,3H)-dione], for which, at human GnRHR1, the IC50 amounted to 51 nM. For the same compound, in series [1], the C360 (plasma drug concentration at 360 minutes after administration) is 1010 ng/mL, the “availability by oral administration compared with Control compound 1” value is “more excellent availability than the Control compound 1”, the “sustainability of blood concentration 6 hours after oral administration compared with Control compound” value was “more superior in sustainability than the Control compound” and the Cmax was determined as 17600 ng/mL.

The values are drawn from patent publication US8426427B2, “Fused heterocyclic derivative, pharmaceutical composition comprising the derivative, and use of the composition for medical purposes” (Kissei Pharmaceutical Co., Ltd., priority 2007, dated 2013).
